Assay [1] has as its system Botrytis cinerea spores. The assay is described as follows: Inhibition of germination of Botrytis cinerea spores (germination-associated adhesion in microtiter plates, sulforhodamine B). Particulars: B. cinerea spores in SDB, 25° C., 5.5 hours; compound 1 encapsulated in α-cyclodextrin (0.14% by weight). The format is cell-based. The procedure:
Compounds were evaluated for the ability to inhibit germination of Botrytis cinerea spores using an assay which measures the inhibition of germination-associated adhesion in microtiter plates. […] This solution was then diluted with SDB to give a solution concentration of compound 2 of 1000 ppm. Comparison compound, AVG, was dissolved in SDB at 5 mg/ml. Two-fold serial dilutions of the solutions of these compounds in SDB were made in 100 μl aliquots of SDB in 96-well microtiter plates. Spore suspension of B. cinerea (100 μl at 2×10^5 spores/ml) was added to the wells. The plates were then incubated at 25° C. for 5.5 hours at which time spores in control wells had germinated. The medium containing unbound spores was removed by inverting and flicking the microtiter plate to remove as much liquid as possible. Quantitation of the adhered spores was achieved by measuring their cellular protein content using sulforhodamine B (see Skehan et al., Journal of the National Cancer Institute, 82, 1107-1112 (1990)), measuring absorbance at 564 nm. Inhibition of adhesion was determined by comparing the absorbance value in a well containing fungicide with the absorbance in control wells without fungicide. EC50 values for germination inhibition were determined from dose-response curves.

The subject of assay [2] is Pythium ultimum. Format: cell-based. Conditions: mycelial homogenate, 25° C., 2 days, compound encapsulated in α-cyclodextrin (0.14% by weight).
Assay [3] relates to Phytophthora capsici. The format is cell-based. Conditions: spore suspension, 25° C., 5 days, compound encapsulated in α-cyclodextrin (0.14% by weight).
For assay [4], the system named is Botrytis cinerea. The assay is described as follows: Technical material v. formulation: inhibition of fungal growth in sealed vials (sulforhodamine B). Format: cell-based. Conditions: technical material added in acetone, 16 hours. The procedure: Since compound 1 is a gas at room temperature its activity as a technical material in solution was evaluated in sealed vials with a small head space as follows. Compound 1, formulated by encapsulation in a-cyclodextrin, was also tested for comparison.
Compound 1 (technical material) was added to 21×50 mm glass vials on dry ice as the appropriate amount of a 14% (w/v) solution in acetone to provide the desired concentrations. (The acetone solutions were kept on dry ice or in a freezer at −80° C. until used.) Controls received the same volumes of acetone alone. A spore suspension (8 ml) of Botrytis cinerea at 2.5×10^4 spores/ml in two-fold diluted SDB was added to each vial. The vials were immediately sealed with polyethylene plugs and placed in a […] incubator for 16 hours. The extent of fungal growth in the vials was determined by measuring their cellular protein content using sulforhodamine B (Skehan, et al., Journal of the National Cancer Institute 82, 1107-1112 (1990)), and the percent inhibition of growth was calculated by comparing growth in the treatments with growth in the controls.
The desired amounts of Compound 1, formulated by encapsulation in α-cyclodextrin ([…]) were added to glass vials. A spore suspension (8 ml) of Botrytis cinerea at 2.5×10^4 spores/ml in two-fold diluted SDB was added to each vial, and vials processed as described above.

Assay [5] has as its system Septoria nodorum. Format: cell-based. Conditions: spore suspension, 25° C., 2 days, compound encapsulated in α-cyclodextrin (0.14% by weight).
Assay [6] concerns Rhizoctonia solani. The format is cell-based. Conditions: mycelial homogenate, 25° C., 5 days, compound encapsulated in α-cyclodextrin (0.14% by weight).
The test system of assay [7] is Colletotrichum lagenarium. Format: cell-based. Conditions: spore suspension, 25° C., 5 days, compound encapsulated in α-cyclodextrin (0.14% by weight).
The subject of assay [8] is Pyricularia oryzae. Format: cell-based. Particulars: spore suspension, 25° C., 5 days, compound encapsulated in α-cyclodextrin (0.14% by weight).
Assay [9] concerns Botrytis rot on rose petals. The assay is described as follows: Suppression of Botrytis rot on rose petals. The format is in vivo. Conditions: white rose petals exposed to 100 ppm in the gas phase for 90 minutes before inoculation; assessed after 10 days; two trials combined; control 66.7. Here is the method: Freshly cut white roses were purchased from Zieger & Sons, Inc. rose growers. Non senescing petals were chosen to perform the experiment. Petals were placed in plastic petri dishes (100×20 mm) each containing a moist #3 Whatman filter paper with one petal per petri dish.
Compound 1, formulated as in Example 1 (0.778 g) was dissolved in 20 ml hot water in a 100 ml jar sealed with a cap. When the powder was dissolved, the jar was placed in a 4.8 liter cabinet containing three petri dishes (without the lids) with petals. The cap of the jar was quickly removed and the cabinets sealed for ninety (90) minutes. The concentration of Compound 1 in the gas phase was 100 ppm.
After exposure to Compound 1 at 100 ppm the petals were inoculated with two 20μl drops of spore suspension containing 1×10^6 spores per ml. Controls were inoculated without prior exposure to Compound 1.
Lids were placed on the petri dishes and the dishes were transferred to a plant growth chamber set at a 12 hour photoperiod, a 20° C. day temperature and 18° C. night temperature, and 70% relative humidity to allow disease development. The number of petals with sporulating lesions was determined after 10 days. Two trials were conducted with 3 petals per treatment in each trial. The combined results from the two trials were as follows: […]

For orientation: % Inhibition of growth means the change of the read-out against control, counted positive when it falls. A lower % Inhibition of growth goes with a weak effect. On to `CC1=CC1` [Compound 1, 1-methylcyclopropene], for which the “EC50 for germination inhibition” value in assay [1] is on record as 37 ppm. Moreover, the “EC50 (mycelial growth)” value in [2] is given as 2.6 ppm; in assay [3] it was 6.9 ppm; in assay [5], 22.5 ppm; in assay [6] it was 7.4 ppm; in assay [7] it was over 70 ppm; in assay [8], 6.7 ppm. In addition, the “% Inhibition of growth” value in assay [4] (175 ppm) turned out to be 30.1%; in [4] (350 ppm), 99.4%; in assay [4] (525 ppm), 99.8%. In [9], the “Petals with sporulating lesions (%)” value worked out at 16.7%.

Consider `CCCCCCCCC1=CC1(F)F` [Compound 2, 1-n-octyl-3,3-difluorocyclopropene], for which the “EC50 for germination inhibition” value in assay [1] is 3.3 ppm.

The values are drawn from patent publication US20020035146A1, “Antifungal compounds and compositions and antifungal use thereof” (priority 2000, published 2002).
